Patent US8486464B2, “Herbal composition for angina pectoris, method to prepare same and uses thereof” (Tasly Pharmaceutical Group Co. Ltd., priority 2000, dated 2013)

Key:
Type in all cases: in vivo
myocardial infarction = experiment: Dog myocardial infarction area (N-BT); details: dogs; Dan Shen Pill 2 g/kg, Ditiazem 5 mg/kg
Protocol: (§1) 1.1 Experimental Groups. (1) Blank control group, normal saline 3 ml/kg; (2) DSP group, 2 g natural drug/kg; (3) positive control group, Ditiazem, 5 mg/kg. All the above samples are diluted with normal saline to the same volume of 3 ml/kg and were given to the patient through the duodenum.
The hearts were removed 180 mins after treatment and weighed, cut into slices, and colored with N-BT. The infarction area of each slice (N-BT-uncolorized area) and non-infarction area (N-BT colorized area) were measured. The percentage occupied by the infarction area in the ventricles was calculated and the whole heart was weighted.
(§2) The significance of the experimental results was tested by the t-testing method.

myocardial ischemia = experiment: Dog acute myocardial ischemia: level and area by ECG (Σ-ST, N-ST); details: dogs, Dan Shen Pill 2 g/kg, Ditiazem 5 mg/kg
Protocol: as §1
(§3) 1.2 Experimental Method. The dogs are anesthetized with pentobarbital sodium. Chests were opened and coronary arterioles and the central part of the dorsal lower branch separated and tied to create an acute myocardial ischemia model. ECGs were recorded and the level of myocardial ischemia (increased section ST, ST) and area of myocardial ischemia (the total increased decimal places in section ST) were calculated. The oxygen content in the coronary artery was recorded. Blood serum creatine kinase (CK), lactate dehydrogenase (LDH), ET, TXB2 and 6-Keto-PGF1 were measured. The oxygen content of the aorta and coronary vein, and blood flow volume in the coronary arteries were measured to calculate myocardial oxygen consumption. Blood oxygen content in the coronary vein was measured to calculate myocardial oxygen content (myocardial oxygen content=(blood oxygen content in arteries-blood oxygen content in coronary veins)×blood flow volume in coronary artery/100).
as §2

[1] = test system: venous blood oxygen content; experiment: Dog coronary venous blood oxygen content; details: dogs, Dan Shen Pill 2 g/kg, Ditiazem 5 mg/kg
Protocol: as §1, §3

ET, TXB2, 6-Keto-PGF1α = experiment: Dog plasma ET, TXB2, 6-Keto-PGF1α; set-up: 6-Keto-PGF1α: unit not given beside the values; details: dogs, Dan Shen Pill 2 g/kg, Diltiazem 5 mg/kg
Protocol: as §1, §3

SOD, MDA = experiment: Rat M-IR damage: SOD activity and MDA content in blood serum; details: Wistar, 2 hrs after duodenal dosing, DSP 3.0 g/kg, Ditiazem 30 mg/kg
Protocol: (1) Experimental Groups. Control group (Serum taken as normal control), Model group (Normal Saline), Ditiazem group (30 mg/kg), DSP 6.0, 3.0 g/kg group. Each group was diluted to its necessary concentration with 3 ml/kg normal saline through the duodenum.
(2) Experimental Method. Wistar animal is anesthetized by pentobarbital sodium and fixed. Chests and cardial membranes are opened to expose the heart. A hole in the left lower dorsal part of the coronary artery is left for tying. Separate the duodenum, and infuse the tested drugs into it. Take blood from the abdomen after 2 hrs and test the MDA and SOD content in the blood serum.

Compound: COc1ccc([C@@H]2Sc3ccccc3N(CCN(C)C)C(=O)[C@@H]2OC(C)=O)cc1 [Ditiazem]
- Area of Cardiac Chamber (myocardial infarction): 5377.8 ± 411.2 mm2
- Area of Infarction (myocardial infarction): 378.98 ± 138.41 mm2
- Infarction Location/Cardiac Chamber (myocardial infarction): 7.22 ± 2.87
- Infarction Location/Heart (myocardial infarction): 2.52 ± 1.35
- Myocardial area (myocardial infarction): 14096.5 ± 3056.4 mm2
- N-ST (myocardial ischemia; 15 min after dosage): 29.80
- N-ST, changing in percentage (before dosage = 100%) (myocardial ischemia; 15 min after dosage): 99.33%
- Σ-ST (myocardial ischemia; 15 min after dosage): 277.80
- Σ-ST, changing in percentage (before dosage = 100%) (myocardial ischemia; 15 min after dosage): 91.83%
- N-ST (myocardial ischemia; 30 min after dosage): 29.60
- N-ST, changing in percentage (before dosage = 100%) (myocardial ischemia; 30 min after dosage): 98.67%
- Σ-ST (myocardial ischemia; 30 min after dosage): 226.20
- Σ-ST, changing in percentage (before dosage = 100%) (myocardial ischemia; 30 min after dosage): 74.87%
- N-ST (myocardial ischemia; 45 min after dosage): 29.20
- N-ST, changing in percentage (before dosage = 100%) (myocardial ischemia; 45 min after dosage): 97.33%
- Σ-ST (myocardial ischemia; 45 min after dosage): 213.40
- Σ-ST, changing in percentage (before dosage = 100%) (myocardial ischemia; 45 min after dosage): 70.59%
- N-ST (myocardial ischemia; 60 min after dosage): 28.40
- N-ST, changing in percentage (before dosage = 100%) (myocardial ischemia; 60 min after dosage): 94.67%
- Σ-ST (myocardial ischemia; 60 min after dosage): 186.20
- Σ-ST, changing in percentage (before dosage = 100%) (myocardial ischemia; 60 min after dosage): 61.61%
- N-ST (myocardial ischemia; 90 min after dosage): 27.00
- N-ST, changing in percentage (before dosage = 100%) (myocardial ischemia; 90 min after dosage): 90.00%
- Σ-ST (myocardial ischemia; 90 min after dosage): 175.20
- Σ-ST, changing in percentage (before dosage = 100%) (myocardial ischemia; 90 min after dosage): 57.95%
- N-ST (myocardial ischemia; 120 min after dosage): 26.80
- N-ST, changing in percentage (before dosage = 100%) (myocardial ischemia; 120 min after dosage): 89.33%
- Σ-ST (myocardial ischemia; 120 min after dosage): 468.00
- Σ-ST, changing in percentage (before dosage = 100%) (myocardial ischemia; 120 min after dosage): 55.60%
- N-ST (myocardial ischemia; 180 min after dosage): 25.20
- N-ST, changing in percentage (before dosage = 100%) (myocardial ischemia; 180 min after dosage): 84.00%
- Σ-ST (myocardial ischemia; 180 min after dosage): 122.80
- Σ-ST, changing in percentage (before dosage = 100%) (myocardial ischemia; 180 min after dosage): 40.63%
- N-ST (myocardial ischemia; before dosage): 30.00
- Σ-ST (myocardial ischemia; before dosage): 302.80
- VO2, changing percentage (before dosage = 100%) ([1]; 30 min after dosage): 97.70 ± 10.36%
- venous oxygen volume (VO2) ([1]; 30 min after dosage): 16.08 ± 1.13 ml %
- VO2, changing percentage (before dosage = 100%) ([1]; 60 min after dosage): 95.95 ± 8.27%
- venous oxygen volume (VO2) ([1]; 60 min after dosage): 15.84 ± 1.43 ml %
- VO2, changing percentage (before dosage = 100%) ([1]; 90 min after dosage): 96.37 ± 5.54%
- venous oxygen volume (VO2) ([1]; 90 min after dosage): 15.92 ± 1.29 ml %
- VO2, changing percentage (before dosage = 100%) ([1]; 120 min after dosage): 92.15 ± 9.42%
- venous oxygen volume (VO2) ([1]; 120 min after dosage): 15.20 ± 1.50 ml %
- VO2, changing percentage (before dosage = 100%) ([1]; 180 min after dosage): 89.62 ± 11.94%
- venous oxygen volume (VO2) ([1]; 180 min after dosage): 14.82 ± 2.28 ml %
- venous oxygen volume (VO2) ([1]; after hypoxia (value before dosage)): 16.56 ± 1.61 ml %
- VO2, changing percentage ([1]; after hypoxia, before dosage): 111.45 ± 33.86%
- venous oxygen volume (VO2) ([1]; before hypoxia (normal value)): 15.44 ± 2.42 ml %
- 6-Keto-PGF1α (ET, TXB2, 6-Keto-PGF1α; 30 min after dosage): 1749.4 ± 278.3
- 6-Keto-PGF1α, changing in percentage (before dosage = 100%) (ET, TXB2, 6-Keto-PGF1α; 30 min after dosage): 118.95 ± 14.47 %
- ET, changing in percentage (before dosage = 100%) (ET, TXB2, 6-Keto-PGF1α; 30 min after dosage): 85.14 ± 13.98 %
- TXB2, changing in percentage (before dosage = 100%) (ET, TXB2, 6-Keto-PGF1α; 30 min after dosage): 101.14 ± 17.90 %
- blood plasma ET (ET, TXB2, 6-Keto-PGF1α; 30 min after dosage): 47.51 ± 7.39 pg/mL
- blood plasma TXB2 (ET, TXB2, 6-Keto-PGF1α; 30 min after dosage): 143.40 ± 28.64 pg/mL
- 6-Keto-PGF1α (ET, TXB2, 6-Keto-PGF1α; 60 min after dosage): 1902.6 ± 155.1
- 6-Keto-PGF1α, changing in percentage (before dosage = 100%) (ET, TXB2, 6-Keto-PGF1α; 60 min after dosage): 131.19 ± 16.98 %
- ET, changing in percentage (before dosage = 100%) (ET, TXB2, 6-Keto-PGF1α; 60 min after dosage): 84.06 ± 18.24 %
- TXB2, changing in percentage (before dosage = 100%) (ET, TXB2, 6-Keto-PGF1α; 60 min after dosage): 92.58 ± 15.17 %
- blood plasma ET (ET, TXB2, 6-Keto-PGF1α; 60 min after dosage): 46.38 ± 9.02 pg/mL
- blood plasma TXB2 (ET, TXB2, 6-Keto-PGF1α; 60 min after dosage): 134.40 ± 46.48 pg/mL
- 6-Keto-PGF1α (ET, TXB2, 6-Keto-PGF1α; 90 min after dosage): 1912.4 ± 258.5
- 6-Keto-PGF1α, changing in percentage (before dosage = 100%) (ET, TXB2, 6-Keto-PGF1α; 90 min after dosage): 132.75 ± 28.52 %
- ET, changing in percentage (before dosage = 100%) (ET, TXB2, 6-Keto-PGF1α; 90 min after dosage): 71.69 ± 12.10 %
- TXB2, changing in percentage (before dosage = 100%) (ET, TXB2, 6-Keto-PGF1α; 90 min after dosage): 69.72 ± 8.76 %
- blood plasma ET (ET, TXB2, 6-Keto-PGF1α; 90 min after dosage): 39.97 ± 7.95 pg/mL
- blood plasma TXB2 (ET, TXB2, 6-Keto-PGF1α; 90 min after dosage): 1093.4 ± 320.9 pg/mL
- 6-Keto-PGF1α (ET, TXB2, 6-Keto-PGF1α; 120 min after dosage): 1982.8 ± 574.2
- 6-Keto-PGF1α, changing in percentage (before dosage = 100%) (ET, TXB2, 6-Keto-PGF1α; 120 min after dosage): 139.39 ± 56.36 %
- ET, changing in percentage (before dosage = 100%) (ET, TXB2, 6-Keto-PGF1α; 120 min after dosage): 74.30 ± 17.04 %
- TXB2, changing in percentage (before dosage = 100%) (ET, TXB2, 6-Keto-PGF1α; 120 min after dosage): 63.03 ± 14.20 %
- blood plasma ET (ET, TXB2, 6-Keto-PGF1α; 120 min after dosage): 41.42 ± 15.69 pg/mL
- blood plasma TXB2 (ET, TXB2, 6-Keto-PGF1α; 120 min after dosage): 1284.1 ± 695.0 pg/mL
- 6-Keto-PGF1α (ET, TXB2, 6-Keto-PGF1α; 180 min after dosage): 1705.2 ± 412.2
- 6-Keto-PGF1α, changing in percentage (before dosage = 100%) (ET, TXB2, 6-Keto-PGF1α; 180 min after dosage): 119.08 ± 39.78%
- ET, changing in percentage (before dosage = 100%) (ET, TXB2, 6-Keto-PGF1α; 180 min after dosage): 82.16 ± 14.09 %
- TXB2, changing in percentage (before dosage = 100%) (ET, TXB2, 6-Keto-PGF1α; 180 min after dosage): 62.77 ± 14.51 %
- blood plasma ET (ET, TXB2, 6-Keto-PGF1α; 180 min after dosage): 45.74 ± 9.40 pg/mL
- blood plasma TXB2 (ET, TXB2, 6-Keto-PGF1α; 180 min after dosage): 1032.7 ± 343.1 pg/mL
- 6-Keto-PGF1α (ET, TXB2, 6-Keto-PGF1α; after hypoxia before dosage): 1478.8 ± 218.6
- 6-Keto-PGF1α, changing in percentage (ET, TXB2, 6-Keto-PGF1α; after hypoxia before dosage): 92.3 ± 5.53%
- ET, changing in percentage (ET, TXB2, 6-Keto-PGF1α; after hypoxia before dosage): 178.30 ± 57.33%
- TXB2, changing in percentage (ET, TXB2, 6-Keto-PGF1α; after hypoxia before dosage): 101.14 ± 19.90 %
- blood plasma ET (ET, TXB2, 6-Keto-PGF1α; after hypoxia before dosage): 55.51 ± 3.59 pg/mL
- blood plasma TXB2 (ET, TXB2, 6-Keto-PGF1α; after hypoxia before dosage): 143.40 ± 28.64 pg/mL
- 6-Keto-PGF1α (ET, TXB2, 6-Keto-PGF1α; before hypoxia (normal value)): 1597.4 ± 185.3
- blood plasma ET (ET, TXB2, 6-Keto-PGF1α; before hypoxia (normal)): 34.41 ± 9.41 pg/mL
- blood plasma TXB2 (ET, TXB2, 6-Keto-PGF1α; before hypoxia (normal)): 106.40 ± 19.12 pg/mL
- MDA, blood serum (SOD, MDA): 5.29 ± 1.07 (μ mol/L) × 10^−3
- SOD, blood serum (SOD, MDA): 817.6 ± 115.6 U/ml
